In patent publication US10336746B1, “RAD51 inhibitors” (Cyteir Therapeutics, Inc., priority 2017, dated 2019):
Like-named read-outs stand apart in the source and are kept apart here.

Tests used:
[1] = system: ARPE19/HPV16 (HPV Immortalized RPE); experiment: Cell line screen, ARPE19/HPV16; assay type: cell-based; settings: ARPE-19, AICDA Expression Negative
Experimental: (§1) The activity of the claimed compounds was measured in a variety of cell lines with different expression levels of activation induced cytidine deaminase (AICDA). The potency assay was repeated in all of the listed cell lines and the EC50 values recorded.

[2] = Bi-directional Caco-2 permeability; assay type: in vitro ADME; settings: human; for efflux ratio at 90 min: Caco-2, read-out: BA/AB Ratio; for Papp A→B at 90 min: Caco-2, apical to basolateral, read-out: AB Papp (cm/sec × 10^6); for Papp A→B at 90 min / Papp B→A at 90 min: 37 C, up to 90 minutes; for Papp B→A at 90 min: Caco-2, basolateral to apical, read-out: BA Papp (cm/sec × 10^6)
Experimental: Bi-directional Caco-2 permeability was assayed. Caco-2 cells were seeded onto permeable polycarbonate supports and allowed to differentiate for about 3 weeks prior to being used in the assays. The cells were then exposed to the compounds from either the apical or basolateral sides and incubated at 37 C for up to 90 minutes under light agitation. Compound transport was then measured using LC/MS/MS analysis at 30, 60, and 90 minutes.

[3] = system: SNU-5 (Gastric); experiment: Cell line screen, SNU-5; assay type: cell-based; settings: Homo sapiens, AICDA Expression Low
Experimental: as §1

[4] = system: KYSE-510 (Head and Neck); experiment: Cell line screen, KYSE-510; assay type: cell-based; settings: Homo sapiens, AICDA Expression Negative
Experimental: as §1

[5] = system: KG-1 (Leukemia); experiment: Cell line screen, KG-1; assay type: cell-based; settings: AICDA Expression Negative
Experimental: as §1

[6] = system: U-698-M (Lymphoma); experiment: Cell line screen, U-698-M; assay type: cell-based; settings: AICDA Expression High
Experimental: as §1

[7] = Human liver microsome stability; assay type: in vitro ADME; settings: human liver microsomes; for half-life / microsomal CLint: 37° C., 45 minutes; for microsomal CLint: read-out: Clearance (μg/min/mg)
Experimental: The stability of the claimed compounds was determined in the presences of human liver microsomes. The compounds were incubated with the microsomes at 37° C. for 45 minutes. Samples were analyzed using LC-MS/MS. Data analysis included half-life, clearance rate, and the percentage of hepatic blood flow (% QH) for each of the compounds in the different species.

[8] = system: WSU-FSCCL (Lymphoma); experiment: Cell line screen, WSU-FSCCL; assay type: cell-based; settings: AICDA Expression Negative
Experimental: as §1

[9] = system: Daudi cell line (AID positive); experiment: Primary screening cell killing assay, Daudi cell line (AID positive); assay type: cell-based; settings: Homo sapiens, 168 h, cell death on Day 7, Cell-Titer Glo
How it was run: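 AID-positive Daudi cells, 1250 per well, were exposed to serially diluted compounds for 7 days at 37° C. Viability read by CellTiter-Glo luminescence; percent cell death and EC50 derived against untreated wells after media-blank subtraction.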

[10] = system: TOV-1120D (Ovary); experiment: Cell line screen, TOV-1120D; assay type: cell-based; settings: AICDA Expression Negative
Experimental: as §1

[11] = system: SNU-1 (Gastric); experiment: Cell line screen, SNU-1; assay type: cell-based; settings: Homo sapiens, SNU1, AICDA Expression Negative
Experimental: as §1

[12] = system: OV56 (Ovary); experiment: Cell line screen, OV56; assay type: cell-based; settings: AICDA Expression Low
Experimental: as §1

[13] = system: KYSE-70 (Head and Neck); experiment: Cell line screen, KYSE-70; assay type: cell-based; settings: Homo sapiens, AICDA Expression Low
Experimental: as §1

[14] = Caco-2, Caco-2, AB direction, read-out: AB Recovery %
[15] = Caco-2, Caco-2, BA direction, read-out: BA Recovery %

Compound | EC50 [1] | recovery at 90 min [2, 14] | recovery at 90 min [2, 15] | efflux ratio at 90 min [2] | Papp A→B at 90 min [2] | Papp B→A at 90 min [2] | EC50 [3] | EC50 [4] | EC50 [5] | EC50 [6] | % QH (percentage of hepatic blood flow) [7] | half-life [7] | microsomal CLint [7] | EC50 [8] | EC50 [9] | EC50 [10] | EC50 [11] | EC50 [12] | EC50 [13]
CC(C)OC(=O)N[C@H]1CC[C@H](c2ncc(-c3ccc(NC(=O)NCc4ccccc4)cc3S(=O)(=O)NC(C)(C)C)s2)CC1 [Ex. 66A, trans-isopropyl N-[4-[5-[4-(benzylcarbamoylamino)-2-(tert-butylsulfamoyl)phenyl]thiazol-2-yl]cyclohexyl]carbamate] | > 10 µM | 64.9% | 81.2% | 1.4 | 2.9 ×10⁻⁶ cm/s | 3.9 ×10⁻⁶ cm/s | 2.94 µM | 4.52 µM | 3.07 µM | 0.088 µM | 49.6% | 1.29 h | 18.2 µL/min/mg | 0.025 µM | ≤ 0.1 µM | 2.38 µM | 0.609 µM | 5.94 µM | 2.64 µM
CC(C)OC(=O)Nc1ccc(-c2cnc([C@H]3CC[C@H](NC(=O)OC(C)C)CC3)s2)c(S(=O)(=O)NC(C)(C)C)c1 [Ex. 67A, trans-isopropyl N-[3-(tert-butylsulfamoyl)-4-[2-[4-(isopropoxycarbonylamino)cyclohexyl]thiazol-5-yl]phenyl]carbamate] | > 10 µM | 50.7% | 78.6% | 0.7 | 10.5 ×10⁻⁶ cm/s | 6.9 ×10⁻⁶ cm/s | 3.85 µM | 3.4 µM | 3 µM | 0.791 µM | <20.3% | > 5 h | < 4.6 µL/min/mg | 0.344 µM | 0.1 to 1 µM | 4.92 µM | 2.93 µM | 7.23 µM | 2.63 µM
